{"source": "patent US11975106B2", "about": "“Uses of halogenated xanthenes in oncology and virology” (Provectus Pharmatech, Inc., priority 2020, dated 2024)", "key": {"young male Wistar rats": {"tested_on": "young male Wistar rats", "details": "cited from earlier work"}, "[1]": {"details": "in vivo; cited from earlier work"}, "SARS-CoV-2 [2]": {"tested_on": "SARS-CoV-2", "type": "cell-based", "details": "Calu-3 cells, 48-hour RB contact; read-out: EC50 (viral titer)"}, "[3]": {"assay": "Classic IV diagnostic use of RB, blood concentration", "type": "in vivo, human", "details": "100 mg single IV bolus, blood volume approximately 5 L (also approximately 20 μM)", "method": "Based on a molecular weight of 1018 g/mole for disodium RB, the classic IV diagnostic use of RB, conducted by giving 100 mg RB as a single IV bolus to adults with a standard blood volume of approximately 5 L, achieved a concentration of approximately 20 mg/L in the blood, or approximately 20 μM RB. Exposure at such a level would have minimal direct cytotoxic effect on solid tumor or hematologic malignancies, as illustrated by the results of Swift et al. 2019 or Swift et al. 2018, above."}, "leukemia cell lines": {"tested_on": "leukemia cell lines", "details": "cited from earlier work"}, "STING": {"tested_on": "STING", "assay": "STING dimerization by Western blot in THP-1 AML cells", "type": "cell-based", "method": "Cells were treated with RB and the induction of STING was evaluated by Western blot analysis using cyclic guanosine monophosphate-adenosine monophosphate (cGAMP) as a positive control.\n(§1) These studies were carried out using RB at 100 μM, or about 0.01% RB. Cytokine assays were carried out prior to the addition of RB to the cell culture medium (0), and at 8, 24 and 48 hours thereafter.\n(§2) Proteins that associate with STING in the presence of RB were purified by immunoprecipitation and analyzed by mass spectrometry (LC-MS/MS). The culture supernatants from RB-treated cells were probed for a panel of 42 immune cytokines using the Bio-Plex® multiplex bead-based assay system (Bio-Rad Laboratories, Inc.)."}, "[4]": {"details": "cited from earlier work"}, "SARS-CoV-2 [5]": {"tested_on": "SARS-CoV-2"}, "Vero cells": {"tested_on": "Vero cells", "details": "48 hours"}, "[6]": {"assay": "Plasma protein binding, ultracentrifugation method, human plasma", "type": "in vitro ADME", "excerpt": "(§3) In normal rats, 75-80% of the RB was recovered from the albumin fraction and the remaining 20-25% in other protein fractions [Tsao et al. 1988, supra; and Meurman, Acta medica Scan, Supp 167, Chapters I, III, V, VII, X and XII (1960)]."}, "[7]": {"assay": "Plasma protein binding, ultracentrifugation method, rat plasma", "type": "in vitro ADME", "excerpt": "as §3"}, "[8]": {"details": "humans, intravenous; cited from earlier work"}, "[9]": {"assay": "Clinical studies of PV-10 delivered intratumorally", "type": "in vivo, human", "method": "In clinical studies of PV-10 (10% disodium RB in saline for injection), RB has been tolerated at a bolus dose of 1500 mg upon intravasation when delivered intratumorally; this equates to an exposure of approximately 300 mg/L in the bloodstream (300 μM RB)."}, "THP-1 AML cells": {"tested_on": "THP-1 AML cells", "assay": "Cytokine/chemokine Bio-Plex assay of THP-1 AML culture supernatants", "type": "cell-based", "details": "RB 100 μM", "method": "as §1, §2"}, "[10]": {"tested_on": "SARS-CoV-2 viral envelope protein (E gene) vRNA", "assay": "qPCR of viral RNA (E gene) after RB treatment", "type": "cell-based"}, "[11]": {"tested_on": "SARS-CoV-2 isolate USA-WA1/2020", "assay": "microbe, parasite or virus in culture", "type": "cell-based"}, "[12]": {"details": "cited from earlier work", "remark": "listed apart in the source"}, "[13]": {"details": "package insert; cited from earlier work"}, "progressive COVID-19": {"tested_on": "progressive COVID-19", "details": "cited from earlier work"}, "[14]": {"details": "rats, similar concentrations for comparators"}, "[15]": {"details": "oral 300 mg/kg/day, young male Wistar rats"}}, "note": "Like-named read-outs stand apart in the source and are kept apart here.", "data": [{"molecule": "O=S(=O)([O-])c1ccc2c(N=Nc3ccc(S(=O)(=O)[O-])c4ccccc34)c(O)c(S(=O)(=O)[O-])cc2c1.[Na+].[Na+].[Na+]", "note": "[Amaranth, reference compound]", "values": [{"measurement": "H^3-UTP incorporation into RNA or RNA content in liver nuclei (RNA synthesis in vivo)", "setting": "young male Wistar rats; rat, in vivo", "result": "stimulate RNA synthesis"}]}, {"molecule": "N#C[C@@]1(c2ccc3c(N)ncnn23)O[C@H](CO)[C@@H](O)[C@H]1O", "note": "[GS-441524]", "values": [{"measurement": "half-life", "setting": "[1]", "result": "about 25 hours"}]}, {"molecule": "Cc1cc(C)c(N=Nc2c(O)c(S(=O)(=O)[O-])cc3cc(S(=O)(=O)[O-])ccc23)cc1C.[Na+].[Na+]", "note": "[Ponceau 3R, reference compound]", "values": [{"measurement": "H^3-UTP incorporation into RNA or RNA content in liver nuclei (RNA synthesis in vivo)", "setting": "young male Wistar rats; [14]", "result": "stimulate RNA synthesis"}]}, {"molecule": "O=C1OC2(c3cc(I)c(O)c(I)c3Oc3c2cc(I)c(O)c3I)c2c(Cl)c(Cl)c(Cl)c(Cl)c21", "note": "[RB, 4,5,6,7-tetrachloro-2′,4′,5′,7′-tetraiodofluorescein]", "values": [{"measurement": "EC50", "setting": "SARS-CoV-2 [2]", "result": 0.015, "unit": "µM"}, {"measurement": "concentration in the blood", "setting": "[3]", "result": "approximately 20 mg/L"}, {"measurement": "IC50", "setting": "leukemia cell lines; primary pediatric leukemia cell lines", "result": 92.8, "unit": "µM"}, {"measurement": "IC50", "setting": "leukemia cell lines; refractory (relapsed) pediatric leukemia cell lines", "result": 122, "unit": "µM"}, {"measurement": "STING dimerization (Western blot)", "setting": "STING; RB at 100 μM", "result": "new about 70-KD STING dimer band"}, {"measurement": "induction of PDL-1", "setting": "STING; compared to cGAMP controls", "result": "no induction"}, {"measurement": "solubility", "setting": "[4]; in 2-methoxyethanol (printed also as 6%)", "result": 60, "unit": "mg/mL"}, {"measurement": "solubility", "setting": "[4]; in ethanol (printed also as 3%)", "result": 30, "unit": "mg/mL"}, {"measurement": "solubility", "setting": "[4]; in water (printed also as 10%)", "result": "≥ 100", "unit": "mg/mL"}, {"measurement": "SI (CC50/EC50)", "setting": "SARS-CoV-2 [5]; Vero cells, 48 hours", "result": 3211}, {"measurement": "inhibition in viral titers", "setting": "SARS-CoV-2 [5]; Vero cells, approximately 1 to 100 μM RB, 48 hours of contact", "result": "complete inhibition"}, {"measurement": "EC50", "setting": "SARS-CoV-2 [5]; read-out: EC50 (viral titer)", "result": 0.054, "unit": "µM"}, {"measurement": "CC50", "setting": "Vero cells", "result": 175, "unit": "µM"}, {"measurement": "plasma protein binding", "setting": "[6]; 1 μM", "result": 99.8, "unit": "%"}, {"measurement": "plasma protein binding", "setting": "[6]; 10 μM", "result": 99.9, "unit": "%"}, {"measurement": "plasma protein binding", "setting": "[7]", "result": 99.2, "unit": "%"}, {"measurement": "plasma protein binding", "setting": "[7]; 1 μM", "result": 99.0, "unit": "%"}, {"measurement": "circulatory half-life", "setting": "[8]", "result": "about 30 minutes"}, {"measurement": "influence on growth rate", "setting": "young male Wistar rats; [15]", "result": "no influence"}, {"measurement": "relative liver weight", "setting": "young male Wistar rats; [15]", "result": "significant decrease"}, {"measurement": "H^3-UTP incorporation into RNA or RNA content in liver nuclei (RNA synthesis in vivo)", "setting": "young male Wistar rats; [14]", "result": "No effect"}, {"measurement": "exposure in the bloodstream", "setting": "[9]; at 1500 mg bolus (printed also as 300 μM RB)", "result": "approximately 300 mg/L"}, {"measurement": "tolerated bolus dose", "setting": "[9]; upon intravasation when delivered intratumorally as PV-10", "result": 1500, "unit": "mg"}, {"measurement": "increase in IL-6", "setting": "THP-1 AML cells; 24 hours following exposure", "result": "approximately 10 fold"}, {"measurement": "increase in IL-8", "setting": "THP-1 AML cells; 24 hours following exposure", "result": "approximately 10 fold"}, {"measurement": "increase in IP-10", "setting": "THP-1 AML cells; 24 hours following exposure", "result": "approximately 10 fold"}, {"measurement": "MCP-1 levels", "setting": "THP-1 AML cells", "result": "significant increase"}, {"measurement": "induction of IFN gamma", "setting": "THP-1 AML cells; peak at 24 hours", "result": "> 2", "unit": "fold"}, {"measurement": "induction of MCP-3", "setting": "THP-1 AML cells; peak at 24 hours", "result": "> 2", "unit": "fold"}, {"measurement": "cycle threshold (ct) of sub-genomic viral RNA", "setting": "[10]", "result": "higher ct values"}, {"measurement": "viral E gene copy numbers / viral production", "setting": "[10]; RB added after the virus has been incubated with the cells", "result": "no effect"}, {"measurement": "viral E gene copy numbers", "setting": "[10]; virus and RB added at the same time", "result": "reduction compared to control"}, {"measurement": "viral E gene copy numbers", "setting": "[10]; virus pre-treated with RB 0.6 μM, 1 hour, p<0.05", "result": "lower copy numbers"}, {"measurement": "IC50", "setting": "[11]; RB alone, 2 hours of contact, Vero C1008, read-out: IC50 for inhibition", "result": 67, "unit": "µM"}, {"measurement": "IC50", "setting": "[11]; RB plus 0.15 μM remdesivir, 2-hour RB contact, Vero C1008, read-out: IC50 for inhibition", "result": 47.4, "unit": "µM"}, {"measurement": "bound in serum", "setting": "[12]; equilibrium dialysis, serum from rats lacking serum albumin", "result": "more than 99.8%"}, {"measurement": "recovered from the albumin fraction", "setting": "[12]; normal rats", "result": "75-80%"}, {"measurement": "recovered in other protein fractions", "setting": "[12]; normal rats", "result": "20-25%"}]}, {"molecule": "CCC(CC)COC(=O)[C@H](C)N[P@](=O)(OC[C@H]1O[C@@](C#N)(c2ccc3c(N)ncnn23)[C@H](O)[C@@H]1O)Oc1ccccc1", "note": "[remdesivir, reference compound]", "values": [{"measurement": "half-life", "setting": "[1]", "result": "about 0.89 hours"}, {"measurement": "EC50", "setting": "[11]; Severe acute respiratory syndrome coronavirus 2, Vero C1008, read-out: EC50 (percent plaque forming unit)", "result": 0.86, "unit": "µM"}, {"measurement": "IC50", "setting": "[11]; Severe acute respiratory syndrome coronavirus 2, Vero C1008, read-out: IC50 (percent inhibition)", "result": 0.86, "unit": "µM"}]}, {"molecule": "Yervoy®: immune checkpoint inhibitor monoclonal antibody", "values": [{"measurement": "terminal t1/2", "setting": "[13]", "result": 15.4, "unit": "days"}]}, {"molecule": "tocilizumab: immunosuppressive humanized monoclonal antibody against the interleukin-6 receptor", "values": [{"measurement": "death rate ratio", "setting": "progressive COVID-19; 28-day mortality, 95% CI 0.77-0.96, p=0.007", "result": 0.86}, {"measurement": "proportional reduction in 28-day mortality", "setting": "progressive COVID-19; about 4000 hospitalized patients, progressive COVID-19", "result": 13, "unit": "%"}]}]}
